These are literature values, as cited in patent publication US6821523B2, “Topical administration of pharmacologically active bases in the treatment of warts” (Dermatrends, Inc., priority 2002, dated 2004).

In one series the test system is cutaneous warts. The note with it: for efficacy in words: survey of clinical trials, local wart treatment.

On to `O=C(O)c1ccccc1O` [salicylic acid], for which, in the series with cutaneous warts (simple topical treatments, vs 48% for placebos), the cure rates result is reported as “about 75%”.

As for `O=B[O-].[Na+]` [Sodium metaborate], the “pH of Aqueous Solution, alkalinity in words” value is recorded as “Strongly alkaline”.

As for `O=P([O-])([O-])O.[K+].[K+]` [Potassium phosphate, dibasic], the “pH of Aqueous Solution, alkalinity in words” value is “Aqueous solution is slightly alkaline”.

As for `O.O.O.O.O.O.O.O.O.O.O.O.O=P([O-])([O-])[O-].[Na+].[Na+].[Na+]` [Sodium phosphate, tribasic dodecahydrate], the “pH of Aqueous Solution (concentration)” value (1.0% (1%)) is 11.9 (1.0%).

In the case of `O=c1[nH]cc(F)c(=O)[nH]1` [5-fluorouracil], the efficacy in words entry in the series with cutaneous warts is given as “weak at best”.

bleomycin: the efficacy in words entry in the series on cutaneous warts is reported as “weak at best”.
